Legend:
[1] = system: respondents with self-reported psychiatric conditions; details: majority of respondents; ritual or recreational use; observational; cited from earlier work
[2] = system: patients with treatment-resistant major depressive disorder; test: Clinical trial of inhaled 5-MeO-DMT in TRD patients: intensity of the psychedelic effects (MEQ30, ASC, PPEQ); format: in vivo, human; details: single 12 mg inhaled dose
Method: The following questionnaire is applied in situations where the acute psychedelic experience after treatment with 5-MeO-DMT needs to be quantified. At the end of relevant treatment sessions, the patient is handed a paper form and asked to rate the degree to which at any time during that session they experienced any of the phenomena listed below using the scale listed below. The MEQ30 is then computed and the occurrence of a peak psychedelic experience is then evaluated as described under scoring instructions.
The score for each individual subscale is computed by calculating the average score (from the scale of 0 to 5) for the phenomena belonging to the subscale as listed below.
The MEQ30-total score is computed by taking the average response to all phenomena. Patients or probands with a score≥60% of the maximum possible score on each of the four subscales of the MEQ30 are considered to have experienced a “peak psychedelic experience”.
The Peak Psychedelic Experience Questionnaire (PPEQ) has been developed by the inventor as an improved alternative to the oceanic boundlessness dimension of the ASC and the MEQ30 to allow a simpler and quicker assessment of the intensity of a psychedelic experience.

[3] = Clinical trial of inhaled 5-MeO-DMT in healthy volunteers: 5-MeO-DMT and bufotenine plasma levels; format: in vivo, human
Method: The trial consisted of two parts: Part A, where single doses of 5-MeO-DMT dosage amounts of 2 mg, 6 mg, 12 mg and 18 mg were administered; and Part B, where an initial 5-MeO-DMT dosage amount of 6 mg was administered, and then, unless the participant had already experienced a peak psychedelic experience based on the PPEQ or the supervising physician had decided that further dose increases were inappropriate based on observed side effects, further subsequent dosage amounts of 12 mg and 18 mg were administered with about 3 hours in between each administration. […] Pharmacokinetic analysis of 5-MeO-DMT and bufotenine plasma levels was performed at 1 hour and 3 hours after drug administration in Part A, and at 3 hours after drug administration in Part B.

SMILES: COc1ccc2[nH]cc(CCN(C)C)c2c1 [5-MeO-DMT, 5-methoxy-N,N-dimethyltryptamine]
- Self-perceived change of psychiatric symptoms (anxiety, depression, substance use problems, post-traumatic stress disorder) [1]: perceived improvements in symptoms
- PPE achieved (ASC: at least 60% of the maximum possible score of the Oceanic Boundlessness dimension) ([2]; Patient 1): Yes
- PPE achieved (MEQ30: at least 60% of the maximum possible score in each of the four subscales) ([2]; Patient 1): Yes
- PPE achieved (PPEQ Total Score of at least 75) ([2]; Patient 1): Yes
- PPE achieved (ASC: at least 60% of the maximum possible score of the Oceanic Boundlessness dimension) ([2]; Patient 2): No
- PPE achieved (MEQ30: at least 60% of the maximum possible score in each of the four subscales) ([2]; Patient 2): Yes
- PPE achieved (PPEQ Total Score of at least 75) ([2]; Patient 2): Yes
- Onset of the first psychedelic symptoms after the inhalation ([2]; both patients): within a few seconds
- 5-MeO-DMT plasma levels ([3]; Part A and Part B, 3-hour time point, LLOQ of the 5-MeO-DMT assay 0.014 ng/ml): reached the lower level of quantification (LLOQ)
- 5-MeO-DMT plasma levels ([3]; any dose in Part A, 1-hour timepoint): very low

Reference: patent US20250134861A1, “COMPOSITIONS COMPRISING 5-METHOXY-N,N-DIMETHYLTRYPTAMINE (5-MEO-DMT) FOR USE IN TREATING MENTAL DISORDERS” (GH RESEARCH IRELAND LIMITED, priority 2019, published 2025)
